Patent publication US6803046B2, “Sincalide formulations” (Bracco International B.V., priority 2002, dated 2004)

Experiments:
[1] = Effect of amino acids on sincalide recovery and related impurities; format: physicochemical; conditions: for improvement in sincalide recovery vs control without lysine: lyophilized formulations
Experimental: Experiments were conducted to evaluate several amino acids as potential stabilizers of sincalide, including the non-polar (hydrophobic) methionine residue, aspartic acid and glutamic acid, the polar glycine and cysteine residues, and the basic lysine and arginine amino acids. […]
For comparison to the non-polar amino acid methionine as a potential processing stabilizer, polar amino acids such as glycine and cysteine were also evaluated. Formulations containing these amino acids were exposed to air in open vials and compared to product in closed vials. […] Table 23 presents the sincalide recoveries for experimental formulations containing variable concentrations of methionine, cysteine or glycine. […]

[2] = Effect of antioxidants on sincalide formulation stability (HPLC); conditions: for % Sincalide / % Total Sincalide-Related Impurities: antioxidant 10 μg/mL; for effect of antioxidant on sincalide stability (in words): antioxidant 10 μg/mL in reconstituted sincalide formulation, over 15 hours
Experimental: An experiment was performed to evaluate the addition of antioxidants as stabilizing agents to prevent sincalide oxidation in formulations of sincalide (formulations for Example 4 contained 85 mg/mL mannitol, 0.005 mg/mL TWEEN® 20, 2.75 mg/mL KH2PO4, 1.0 mg/mL DTPA, 2.0 mg/mL methionine, 7.5 mg/mL lysine, 15 mg/mL arginine, 0.0025 mg/mL sincalide (Bulk formulation), except placebos which contained no sincalide.) The formation of sincalide methionine (Met 3 or Met 6) monosulfoxides, desulfated sincalide and unknown degradants was investigated. The effectiveness of sodium metabisulfite, ascorbic acid, cysteine, glutathione, sodium sulfate, benzalkonium chloride, and benzethonium chloride in inhibiting the degradation of sincalide in terms of their effect on sincalide recovery and sincalide-related impurities, was evaluated by HPLC.
The effect of various antioxidants on the stabilization of sincalide was evaluated on open and sealed sincalide formulations over 15 hours. The antioxidants were separately added at a concentration of 10 μg/mL to water-reconstituted lyophilized sincalide formulations containing all formulation ingredients except antioxidant. Spiked and unspiked solutions were pooled, subdivided, and either exposed to or protected from air over 15 hours. The sincalide and total sincalide-related impurities were monitored by reversed-phase HPLC with gradient elution and UV detection at 215 nm to compare the effectiveness of the antioxidants.
To optimize the level of sodium metabisulfite in the formulation, lyophilized sincalide formulations were prepared containing four levels of sodium metabisulfite (0, 10, 30, and 60 μg/vial), as summarized in Table 13. Samples at each concentration were maintained under unstressed and stressed (65 ° C., 64 hours) storage conditions, and were subsequently assayed by HPLC. The “% sincalide” was determined, and the “% (Met 6) monosulfoxide” (tR≈19.7 min.) was monitored as an indication of sincalide oxidation.
Another experiment was conducted under longer-term accelerated storage conditions utilizing a sincalide formulation with the optimized concentration (40 μg/vial) of sodium metabisulfite to confirm the protective effect on the degradation of sincalide. Sincalide lyophilized formulations with and without the antioxidant from the same batch were heat-stressed at 40° C. and 60° C. for 6 weeks. Also, formulations without sincalide from the same batch were heat-stressed at 40° C. for 8 months.

[3] = Effect of surfactants on sincalide recovery (RP-HPLC); format: physicochemical; conditions: for sincalide recoveries: formulations containing trace levels (2.5-7.5 μg/mL) of the surfactant
Source text: During the preliminary developmental studies of a new formulation that consisted of bulking agent/tonicity adjuster, buffer, salt, chelator, and sincalide, it was observed by HPLC analysis that the recovery of the active pharmaceutical ingredient, sincalide, in the bulk solution was sensitive to standing open to air. […] Although to some extent, this sincalide decrease can be accounted for by an increase in the presence of sincalide mono- and disulfoxide degradants, these represent only a very minor percentage of the decreases noted. Thus the decrease in recovery is thought to be attributed to either adsorption/denaturing or air/liquid interface effects. To minimize sincalide degradation associated with surface adsorption, surfactants are added as formulation excipients in bulk and lyophilized formulations of sincalide.
Sincalide formulations consisting of a bulking agent/tonicity adjuster (D-mannitol), buffer (mono- and dibasic potassium phosphate), salt (sodium/potassium chloride) for tonicity, chelator (pentetic acid), and active ingredient (sincalide) were prepared using varying concentrations of the nonionic surfactant, polysorbate 80 (TWEEN® 80). Bulk solution and reconstituted lyophilized samples were either stoppered immediately or left unstoppered for 17 hours, and were assayed for sincalide recovery by reversed-phase gradient elution HPLC at 215 nm. […]
An additional experiment was performed to confirm the effect of the concentration of TWEEN® 20 in terms of sincalide recovery in both air exposed and sealed bulk formulation. Sincalide recovery, determined for bulk formulation (75.0 mg/mL D-mannitol, 6.0 mg/mL KCl, 3.25 mg/mL KH2PO4, 1.0 mg/mL DTPA, 0.0025 mg/mL sincalide) containing varying trace levels of TWEEN® 20 stored in open or closed vials using reversed-phase gradient elution HPLC, is shown in Table 10. […]

[4] = Table 23, bulk formulation, amino acid 2.0 mg/mL Bulk
[5] = Table 23, bulk formulation, amino acid 2.5 mg/mL Bulk
[6] = bulk formulation, L-Methionine 0.00 mg/mL Bulk
[7] = bulk formulation, L-Methionine 0.025 mg/mL Bulk
[8] = bulk formulation, L-Methionine 0.50 mg/mL Bulk
[9] = bulk formulation, L-Methionine 2.0 mg/mL Bulk

% Sincalide ([2]; Open, 1 h) [%]	% Total Sincalide-Related Impurities ([2]; Open, 1 h) [%]	% Sincalide ([2]; Open, 8 h) [%]	% Total Sincalide-Related Impurities ([2]; Open, 8 h) [%]	% Sincalide ([2]; Open, 15 h) [%]	% Total Sincalide-Related Impurities ([2]; Open, 15 h) [%]	% Sincalide ([2]; Sealed, 0 h) [%]	% Total Sincalide-Related Impurities ([2]; Sealed, 0 h) [%]	% Sincalide ([2]; Sealed, 7 h) [%]	% Total Sincalide-Related Impurities ([2]; Sealed, 7 h) [%]	% Sincalide ([2]; Sealed, 14 h) [%]	% Total Sincalide-Related Impurities ([2]; Sealed, 14 h) [%]	Compound	further results
98.1	1.94	98.2	1.85	97.9	2.13	98.1	1.90	98.3	1.74	98.2	1.82	N[C@@H](CCC(=O)N[C@@H](CS)C(=O)NCC(=O)O)C(=O)O [Glutathione]	–
82.7	17.3	88.4	11.6	82.9	17.1	97.8	2.21	97.7	2.34	97.4	2.58	Benzalkonium Chloride	–
98.0	2.00	98.0	2.01	97.8	2.16	98.1	1.95	98.0	2.05	97.8	2.25	O=C1O[C@H]([C@@H](O)CO)C(O)=C1O [Ascorbic Acid]	–
97.8	2.20	97.7	2.32	98.0	2.05	98.2	1.85	98.1	1.87	98.1	1.91	N[C@@H](CS)C(=O)O [Cysteine]	–

The remaining lines, values behind:

Compound	% Sincalide ([2]; Open, 1 h) [%]	% Total Sincalide-Related Impurities ([2]; Open, 1 h) [%]	% Sincalide ([2]; Open, 8 h) [%]	% Total Sincalide-Related Impurities ([2]; Open, 8 h) [%]	% Sincalide ([2]; Open, 15 h) [%]	% Total Sincalide-Related Impurities ([2]; Open, 15 h) [%]	% Sincalide ([2]; Sealed, 0 h) [%]	% Total Sincalide-Related Impurities ([2]; Sealed, 0 h) [%]	% Sincalide ([2]; Sealed, 7 h) [%]	% Total Sincalide-Related Impurities ([2]; Sealed, 7 h) [%]	% Sincalide ([2]; Sealed, 14 h) [%]	% Total Sincalide-Related Impurities ([2]; Sealed, 14 h) [%]	further results
N[C@@H](CS)C(=O)O [L-Cysteine]	–	–	–	–	–	–	–	–	–	–	–	–	Related impurities (%), Closed [1, 4]: 1.0%; Related impurities (%), Open [1, 4]: 31.0%
polysorbate 80 [TWEEN ® 80]	–	–	–	–	–	–	–	–	–	–	–	–	sincalide recoveries [3]: 95-98%
CSCC[C@H](N)C(=O)O [L-Methionine]	–	–	–	–	–	–	–	–	–	–	–	–	Related impurities (%), Closed [1, 4]: 0.7%; Related impurities (%), Open [1, 4]: 6.4%; Related impurities (%), Closed [1, 5]: 0.7%; Related impurities (%), Open [1, 5]: 10.5%; Related impurities (%), Closed [1, 6]: 1.3%; Related impurities (%), Open [1, 6]: 52.7%; Related impurities (%), Closed [1, 7]: 1.0%; Related impurities (%), Open [1, 7]: 35.9%; Related impurities (%), Closed [1, 8]: 0.8%; Related impurities (%), Open [1, 8]: 19.3%; Related impurities (%), Closed [1, 9]: 0.7%; Related impurities (%), Open [1, 9]: 15.0%
CC(C)(C)CC(C)(C)c1ccc(OCCOCC[N+](C)(C)Cc2ccccc2)cc1 [Benzethonium Chloride]	92.1	7.93	88.0	12.0	92.6	7.36	97.9	2.13	98.0	1.98	98.0	1.96	effect of antioxidant on sincalide stability (in words) [2]: significant destabilizing effect
O=S(=O)([O-])[O-].[Na+].[Na+] [Sodium Sulfate]	98.3	1.70	98.2	1.78	98.1	1.92	98.2	1.76	98.1	1.90	98.2	1.81	effect of antioxidant on sincalide stability (in words) [2]: essentially equivalent to the control formulation
O=S([O-])S(=O)(=O)[O-].[Na+].[Na+] [Sodium Metabisulfite]	98.2	1.76	98.3	1.69	98.2	1.79	98.3	1.67	98.3	1.66	98.3	1.73	–
NCCCCC(N)C(=O)O (racemic) [DL-Lysine]	–	–	–	–	–	–	–	–	–	–	–	–	improvement in sincalide recovery vs control without lysine ([1]; 3 weeks storage at 40° C.): 50%; improvement in sincalide recovery vs control without lysine ([1]; 5 weeks storage at 40° C.): 75%
NCC(=O)O [L-Glycine]	–	–	–	–	–	–	–	–	–	–	–	–	Related impurities (%), Closed [1, 4]: 1.1%; Related impurities (%), Open [1, 4]: 51.1%; Related impurities (%), Closed [1, 5]: 1.6%; Related impurities (%), Open [1, 5]: 44.9%
polyoxyethylene sorbitan monolaurate [TWEEN ® 20]	–	–	–	–	–	–	–	–	–	–	–	–	foaming in the reconstituted product upon vigorous stirring ([3]; 2-mL filled vials, TWEEN 20 concentration of 5 μg/mL): slight foaming; sincalide recoveries [3]: 98-102%
